From US7652142B2, “Bipiperidinyl derivatives useful as inhibitors of chemokine receptors” (priority 2003, dated 2010) come the findings set out here.

SMILES strings stand for the structures. A value given as a limit tells only on which side of the number the result lay.

For this test, the system named is HIV-1. The experiment in a line: Luciferase Replication assay. The settings on record: Human immunodeficiency virus 1, U87/CD4/CCR5, 72 h. The test is classed as cell-based. The protocol:
Luciferase Replication Assay:
Plasmids encoding the full length genome of HIV-1 pNL-4-Luc with the gp 120 V-3 loop replaced by the Bgl II fragment of HIV-1 ADA, YU-2 or HxB (ADA-Luc-FL, YU-2-Luc-FL and HxB-Luc-FL) were obtained from Dr. Susan Pontow (Washington University, St. Louis Mo.). Replication-competent luciferase reporter virus stocks were generated by transfection of plasmids into 293T cells using Superfect (Qiagen) or Mirus transfection reagents. Viral stocks were collected 48 hours following transfection and titered for luciferase production on U-87-CCR5 or CXCR4 cells. U87-CD4-CCR5 cells ([…]) were plated in 96-well cell culture plates and incubated overnight. Media was removed and replaced with 50 μl of fresh culture media (DMEM, 10% FCS) and 50 μl of compound diluted in culture medium. Cells were incubated with compound at 37° C. for 1 hour. The resultant supernatant was removed and replaced with 20 μl of media containing compound and infected with an equal volume of diluted or undiluted virus stock at 37° C. for 3-4 hours. The cells were washed once with DMEM, and 200 μl of media containing compound was added. The cultures were incubated for 3 days, the cells lysed in luciferase lysis buffer (Promega, Madison, Wis.) and transferred to Immulon plates (Dynex Technologies, Chantilly Va.). An equal volume of luciferase substrate (Promega, Madison Wis.) was added to lysates and the plates read immediately in a Wallac Luminometer. Fifty and ninety percent inhibitory concentrations were determined using GraphPad PRISM software.
The term IC50 denotes the concentration needed to halve the response being measured. A higher IC50 goes with weaker potency. Consider `Cc1ncnc(C)c1C(=O)N1CCC(C)(N2CCC(N(Cc3ccccc3)c3ccc(C(C)(C)C(=O)N4CCOCC4)cc3)CC2)CC1`, for which half-maximal inhibition (IC50) was put at 140 pM.
The figure for `Cc1ncnc(C)c1C(=O)N1CCC(C)(N2CCC(N(Cc3ccccc3)c3ccc(C(C)(C)C(=O)N4CCCCC4)cc3)CC2)CC1` is 180 pM; for `Cc1ncnc(C)c1C(=O)N1CCC(C)(N2CCC(N(Cc3ccccc3)c3ccc(CN4CC[C@H](NS(=O)(=O)C5CC5)C4=O)cc3)CC2)CC1` it is 140 pM; for `Cc1cc(O)cc(C)c1C(=O)N1CCC(C)(N2CCC(N(Cc3ccccc3)c3ccc(C(C)(C)C(=O)N4CCOCC4)cc3)CC2)CC1` it is under 100 pM.
The figure for `Cc1ncnc(C)c1C(=O)N1CCC(C)(N2CCC(N(Cc3ccccc3)c3ccc(CC(=O)N4CCCC4)cc3)CC2)CC1` is 130 pM; for `Cc1ncnc(C)c1C(=O)N1CCC(C)(N2CCC(N(Cc3ccccc3)c3ccc(CC#N)cc3)CC2)CC1` it is 140 pM.
`Cc1ncnc(C)c1C(=O)N1CCC(C)(N2CCC(N(Cc3ccccc3)c3ccn(C)c(=O)c3)CC2)CC1` gave an IC50 of 150 pM.
The compound `CCN(CC)C(=O)[C@@H](O)c1ccc(N(Cc2ccccc2)C2CCN(C3(C)CCN(C(=O)c4c(C)ncnc4C)CC3)CC2)cc1` came in with an IC50 of 160 pM.
The same measure for `Cc1cc(NS(C)(=O)=O)cc(C)c1C(=O)N1CCC(C)(N2CCC(N(Cc3ccccc3)c3ccc(C(C)(C)C(=O)N4CCOCC4)cc3)CC2)CC1`: 160 pM; for `CCNC(=O)Nc1cc(C)c(C(=O)N2CCC(C)(N3CCC(N(Cc4ccccc4)c4ccc(CC(=O)N5CCOCC5)cc4)CC3)CC2)c(C)c1`: 190 pM; for `Cc1ncnc(C)c1C(=O)N1CCC(C)(N2CCC(N(Cc3ccccc3)c3ccc(CNC(=O)[C@H](O)c4ccccc4)cc3)CC2)CC1`: 190 pM.
Consider `Cc1ncnc(C)c1C(=O)N1CCC(C)(N2CCC(N(Cc3ccccc3)c3ccc(S(=O)(=O)CCO)cc3)CC2)CC1`, for which the IC50 was 170 pM.
`Cc1cc(N)cc(C)c1C(=O)N1CCC(C)(N2CCC(N(Cc3ccccc3)c3ccc(C(C)(C)C(=O)N4CCOCC4)cc3)CC2)CC1`: half-maximal inhibition (IC50) was put at 130 pM.
